Marks after values point to notes of the source that are not given here.
Assay: Determination of bio-accumulation: urinary clearance pharmacokinetic study in rats
Details: for T½: renal elimination half-life, urine by fluorine NMR, exponential curve fitting; for Compound-related Effects: 73 micro Moles per kg oral gavage, clinical signs and gross necropsy 96 hours post-dose
[1] = recovery of administered amount in urine after 96 h, 73 micro Moles per kg, oral gavage
[2] = 73 micro Moles per kg, oral gavage
[3] = no parent compound in urine, based on elimination of the major metabolite C3F7-O-CHFCOO-, 73 micro Moles per kg, oral gavage

Compound | % Recovery (96 h) [1] [%] | T½ [2] [h] | Compound-related Effects | % Recovery (96 h) [3] | T½ (h) [3]
N.O=C(O)C(F)(F)OC(F)(F)C(F)(F)C(F)(F)OC(F)(F)F [Compound 1, CF3—O—(CF2)3—O—CF2—COONH4] | 73 | – | – | – | –
N.O=C(O)C(F)(F)OC(F)(F)OC(F)(F)F [Compound 2, CF3—OCF2—O—CF2—COONH4] | 96 | 12 | – | – | –
N.O=C(O)C(F)(F)OC(F)(F)OC(F)(F)OC(F)(F)F [Compound 3, CF3—OCF2—OCF2—OCF2—COONH4] | 100 | 12 | – | – | –
N.O=C(O)C(F)(F)OC(F)(F)C(F)(F)C(F)(F)OC(F)(F)F [Compound 4, CF3—(OCF2)3—OCF2—COONH4] | 50 | – | – | – | –
N.O=C(O)C(F)(F)C(F)(F)OC(F)(F)F [Compound 6, CF3—O—CF2—CF2—COONH4] | 100 | 11 | – | – | –
N.O=C(O)C(F)(F)C(F)(F)OC(F)(F)C(F)(F)F [Compound 7, C2F5—O—CF2—CF2—COONH4] | 100 | 10 | – | – | –
N.O=C(O)C(F)(F)C(F)(F)OC(F)(F)C(F)(F)C(F)(F)F [Compound 8, C3F7—O—CF2—CF2—COONH4] | 82 | 12 | – | – | –
N.O=C(O)C(F)(F)C(F)(F)OC(F)(F)C(F)(F)C(F)(F)C(F)(F)F [Compound 9, C4F9—O—CF2—CF2—COONH4] | 42 | 31 | Hepatomegaly | – | –
N.O=C(O)C(F)(F)C(F)OC(F)(F)C(F)(F)C(F)(F)OC(F)(F)F (stereo not shown) [Compound 11, CF3—O—CF2—CF2—CF2—O—CHF—CF2—COONH4] | 84 | 12 | – | – | –
N.O=C(O)C(F)OC(F)(F)C(F)(F)C(F)(F)OC(F)(F)F (stereo not shown) [Compound 12, CF3—O—CF2—CF2—CF2—O—CHF—COONH4] | 95 | 11 | – | – | –
N.O=C(O)C(F)(F)C(F)OC(F)(F)C(F)(F)C(F)(F)F (stereo not shown) [Compound 13, C3F7—O—CFH—CF2COONH4] | 94 | 11 | – | – | –
N.O=C(O)C(F)(F)C(F)(F)C(F)(F)C(F)(F)C(F)(F)OC(F)C(F)(F)F (stereo not shown) [Compound 14, CF3—CFH—O—(CF2)5—COONH4] | 32 | 24 | Hepatomegaly | – | –
N.O=C(O)C(F)(F)C(F)(F)C(F)(F)OC(F)C(F)(F)F (stereo not shown) [Compound 15, CF3—CFH—O—(CF2)3—COONH4] | 95 | 8 | – | – | –
N.O=C(O)COC(F)(F)C(F)OC(F)(F)C(F)(F)C(F)(F)F (stereo not shown) [Compound 16, C3F7—O—CFH—CF2—O—CH2—COONH4] | – | – | – | 65* % | 13* h
N.O=C(O)C(F)(F)C(F)(F)C(F)(F)C(F)(F)C(F)(F)C(F)(F)C(F)(F)F [Compound C-1, C7F15COONH4, reference compound] | 6 | ~550 | Hepatomegaly | – | –
N.O=C(O)C(F)(F)OC(F)(F)C(F)(OC(F)(F)C(F)(F)C(F)(F)F)C(F)(F)F (stereo not shown) [Compound C-3, CF3CF2CF2OCF(CF3)CF2OCF2COONH4, reference compound] | 5 | 95 | Hepatomegaly | – | –
